Reference: patent publication US11135234B2, “Effective aminoglycoside antibiotic for multidrug-resistant bacteria” (MICROBIAL CHEMISTRY RESEARCH FOUNDATION, priority 2015, dated 2021)
Converted amounts (≈) assume the structure as drawn.

Legend:
S. aureus RN4220/pMS520 = experiment: MIC, agar plate dilution method, S. aureus RN4220/pMS520; format: cell-based, Staphylococcus aureus; settings: for minimal inhibitory concentration (MIC): S. aureus RN4220/pMS520, MRSA; for MIC: Staphylococcus aureus, MRSA, read-out: minimal inhibitory concentration (MIC), S. aureus RN4220/pMS520, MRSA
Protocol: (§1) As for the representative compounds of a new aminoglycoside antibiotic of the present invention described in Examples, the minimal inhibitory concentration (MIC, μg/mL) was measured for various assay strains of bacteria using an agar plate dilution method in accordance with the method described in the Japan Society of Chemotherapy.

S. marcescens TH-0447 = experiment: MIC, agar plate dilution method, S. marcescens TH-0447; format: cell-based, Serratia marcescens; settings: for minimal inhibitory concentration (MIC): S. marcescens TH-0447, AMK-resistant; for MIC: Serratia marcescens, TH0447, S. marcescens TH-0447, AMK-resistant, read-out: minimal inhibitory concentration (MIC)
Protocol: as §1

P. aeruginosa PAO1/GN315 = experiment: MIC, agar plate dilution method, P. aeruginosa PAO1/GN315; format: cell-based, Pseudomonas aeruginosa; settings: for minimal inhibitory concentration (MIC): P. aeruginosa PAO1/GN315, AMK-resistant; for MIC: Pseudomonas aeruginosa, read-out: minimal inhibitory concentration (MIC), P. aeruginosa PAO1/GN315, AMK-resistant
Protocol: as §1

P. aeruginosa MSC01035 = experiment: MIC, agar plate dilution method, P. aeruginosa MSC01035; format: cell-based, Pseudomonas aeruginosa; settings: P. aeruginosa MSC01035, ABK-resistant; for MIC: Pseudomonas aeruginosa, read-out: minimal inhibitory concentration (MIC)
Protocol: as §1

E. coli JM109/pMW218 = experiment: MIC, agar plate dilution method, E. coli JM109/pMW218; format: cell-based, Escherichia coli; settings: for minimal inhibitory concentration (MIC): E. coli JM109/pMW218, Sensitive bacterium; for MIC: Escherichia coli, JM109/PMW218, E. coli JM109/pMW218, Sensitive bacterium, read-out: minimal inhibitory concentration (MIC)
Protocol: as §1

[1] = test system: A. baumannii ATCC BAA-1710; experiment: MIC, agar plate dilution method, A. baumannii ATCC BAA-1710; format: cell-based, Acinetobacter baumannii; settings: for minimal inhibitory concentration (MIC): A. baumannii ATCC BAA-1710, MDRA; for MIC: Acinetobacter baumannii, ATCCBAA1710, A. baumannii ATCC BAA-1710, MDRA, read-out: minimal inhibitory concentration (MIC)
Protocol: as §1

S. aureus RN4220 = experiment: MIC, agar plate dilution method, S. aureus RN4220; format: cell-based, Staphylococcus aureus; settings: for minimal inhibitory concentration (MIC): S. aureus RN4220, Sensitive bacterium; for MIC: Staphylococcus aureus, RN4220, S. aureus RN4220, Sensitive bacterium, read-out: minimal inhibitory concentration (MIC)
Protocol: as §1

P. aeruginosa PAO1 = experiment: MIC, agar plate dilution method, P. aeruginosa PAO1; format: cell-based, Pseudomonas aeruginosa; settings: for minimal inhibitory concentration (MIC): P. aeruginosa PAO1, Sensitive bacterium; for MIC: Pseudomonas aeruginosa, PAO1, P. aeruginosa PAO1, Sensitive bacterium, read-out: minimal inhibitory concentration (MIC)
Protocol: as §1

S. marcescens GN6944 = experiment: MIC, agar plate dilution method, S. marcescens GN6944; format: cell-based, Serratia marcescens; settings: S. marcescens GN6944, GM-resistant; for MIC: Serratia marcescens, read-out: minimal inhibitory concentration (MIC)
Protocol: as §1

E. faecium ATCC19434 = experiment: MIC, agar plate dilution method, E. faecium ATCC19434; format: cell-based, Enterococcus faecium; settings: for minimal inhibitory concentration (MIC): E. faecium ATCC19434; for MIC: Enterococcus faecium, ATCC19434, E. faecium ATCC19434, read-out: minimal inhibitory concentration (MIC)
Protocol: as §1

S. aureus MF490 = experiment: MIC, agar plate dilution method, S. aureus MF490; format: cell-based, Staphylococcus aureus; settings: for minimal inhibitory concentration (MIC): S. aureus MF490, MRSA; for MIC: Staphylococcus aureus, MRSA, read-out: minimal inhibitory concentration (MIC)
Protocol: as §1

P. aeruginosa MSC17707 = experiment: MIC, agar plate dilution method, P. aeruginosa MSC17707; format: cell-based, Pseudomonas aeruginosa; settings: for minimal inhibitory concentration (MIC): P. aeruginosa MSC17707, AMK-resistant; for MIC: Pseudomonas aeruginosa, MSC17707, P. aeruginosa MSC17707, AMK-resistant, read-out: minimal inhibitory concentration (MIC)
Protocol: as §1

[2] = test system: K. pneumoniae ATCC BAA-1705; experiment: MIC, agar plate dilution method, K. pneumoniae ATCC BAA-1705; format: cell-based, Klebsiella pneumoniae; settings: for minimal inhibitory concentration (MIC): K. pneumoniae ATCC BAA-1705, KPC-producing strain; for MIC: Klebsiella pneumoniae, ATCCBAA1705, K. pneumoniae ATCC BAA-1705, KPC-producing strain, read-out: minimal inhibitory concentration (MIC)
Protocol: as §1

[3] = test system: K. pneumoniae ATCC BAA-2146; experiment: MIC, agar plate dilution method, K. pneumoniae ATCC BAA-2146; format: cell-based, Klebsiella pneumoniae; settings: for minimal inhibitory concentration (MIC): K. pneumoniae ATCC BAA-2146, NDM-producing strain; for MIC: Klebsiella pneumoniae, ATCCBAA2146, K. pneumoniae ATCC BAA-2146, NDM-producing strain, read-out: minimal inhibitory concentration (MIC)
Protocol: as §1

Row | Compound | minimal inhibitory concentration (MIC) (S. aureus RN4220/pMS520) [mg/L] | minimal inhibitory concentration (MIC) (S. marcescens TH-0447) [mg/L] | minimal inhibitory concentration (MIC) (P. aeruginosa PAO1/GN315) [mg/L] | minimal inhibitory concentration (MIC) (P. aeruginosa MSC01035) [mg/L] | minimal inhibitory concentration (MIC) (E. coli JM109/pMW218) [mg/L] | minimal inhibitory concentration (MIC) [1] [mg/L] | minimal inhibitory concentration (MIC) (S. aureus RN4220) [mg/L] | minimal inhibitory concentration (MIC) (P. aeruginosa PAO1) [mg/L] | minimal inhibitory concentration (MIC) (S. marcescens GN6944) [mg/L] | minimal inhibitory concentration (MIC) (E. faecium ATCC19434) [mg/L] | minimal inhibitory concentration (MIC) (S. aureus MF490) [mg/L] | minimal inhibitory concentration (MIC) (P. aeruginosa MSC17707) [mg/L] | minimal inhibitory concentration (MIC) [2] [mg/L] | minimal inhibitory concentration (MIC) [3] [mg/L] | MIC (S. aureus RN4220/pMS520) [mg/L] | MIC (S. marcescens TH-0447) [mg/L] | MIC (P. aeruginosa PAO1/GN315) [mg/L] | MIC (P. aeruginosa MSC01035) [mg/L] | MIC (E. coli JM109/pMW218) [mg/L] | MIC [1] [mg/L] | also measured
1 | CNC1C(OC2OC(CO)C(N)C(O)C2O)OC2CC(N)C(OC3C(N)CC(N)C(O)C3N)OC2C1O (stereo not shown) [Compound D2, 5-amino-5-deoxy-5-epiapramycin] | 4 (≈ 7.43 µM) | 8 (≈ 14.9 µM) | 4 (≈ 7.43 µM) | 4 (≈ 7.43 µM) | 2 (≈ 3.71 µM) | 8 (≈ 14.9 µM) | 4 (≈ 7.43 µM) | 4 (≈ 7.43 µM) | 4 (≈ 7.43 µM) | 32 (≈ 59.4 µM) | 8 (≈ 14.9 µM) | 8 (≈ 14.9 µM) | 2 (≈ 3.71 µM) | 2 (≈ 3.71 µM) |  |  |  |  |  |  | 
2 | CN[C@@H]1[C@@H](O[C@H]2O[C@H](CO)[C@@H](N)[C@H](O)[C@H]2O)O[C@H]2C[C@@H](N)[C@@H](O[C@H]3[C@H](N)[C@@H](O)[C@H](N)C[C@@H]3N)O[C@@H]2[C@@H]1O [Compound E3, 5-amino-5-deoxyapramycin] | 8 (≈ 14.9 µM) | 16 (≈ 29.7 µM) | 16 (≈ 29.7 µM) | 16 (≈ 29.7 µM) | 4 (≈ 7.43 µM) | 16 (≈ 29.7 µM) | 8 (≈ 14.9 µM) | 16 (≈ 29.7 µM) | 16 (≈ 29.7 µM) | 64 (≈ 119 µM) | 16 (≈ 29.7 µM) | 16 (≈ 29.7 µM) | 4 (≈ 7.43 µM) | 4 (≈ 7.43 µM) |  |  |  |  |  |  | 
3 | CN[C@@H]1[C@@H](O[C@H]2O[C@H](CO)[C@@H](N)[C@H](O)[C@H]2O)O[C@H]2C[C@@H](N)[C@@H](O[C@H]3[C@@H](F)[C@H](N)[C@H](N)C[C@@H]3N)O[C@@H]2[C@@H]1O [Compound F3, 6-amino-5,6-dideoxy-5,6-diepi-5-fluoroapramycin] | 8 (≈ 14.8 µM) | 16 (≈ 29.6 µM) | 16 (≈ 29.6 µM) | 32 (≈ 59.2 µM) | 8 (≈ 14.8 µM) | 16 (≈ 29.6 µM) | 8 (≈ 14.8 µM) | 16 (≈ 29.6 µM) | 16 (≈ 29.6 µM) | 64 (≈ 118 µM) | 32 (≈ 59.2 µM) | 16 (≈ 29.6 µM) | 4 (≈ 7.4 µM) | 4 (≈ 7.4 µM) |  |  |  |  |  |  | 
4 | CNC1C(O[C@H]2OC(CO)[C@@H](N)[C@H](O)C2N)O[C@H]2CC(N)[C@@H](O[C@@H]3C(N)C[C@@H](N)C(O)[C@H]3O)OC2C1O (stereo partly shown) [Compound G7, 2″-amino-2″-deoxy-2″,3″-diepiapramycin] |  |  |  |  |  |  |  |  |  |  |  |  |  |  | 8 (≈ 14.9 µM) | 8 (≈ 14.9 µM) | 8 (≈ 14.9 µM) | 16 (≈ 29.7 µM) | 1 (≈ 1.86 µM) | 8 (≈ 14.9 µM) | MIC (S. aureus RN4220): 4 mg/L (≈ 7.43 µM); MIC (P. aeruginosa PAO1): 8 mg/L (≈ 14.9 µM); MIC (S. marcescens GN6944): 8 mg/L (≈ 14.9 µM); MIC (E. faecium ATCC19434): 16 mg/L (≈ 29.7 µM); MIC (S. aureus MF490): 16 mg/L (≈ 29.7 µM); MIC (P. aeruginosa MSC17707): 8 mg/L (≈ 14.9 µM); MIC [2]: 2 mg/L (≈ 3.71 µM); MIC [3]: 4 mg/L (≈ 7.43 µM)
5 | CNC1C(O[C@H]2OC(CO)[C@@H](N)[C@H](N)C2O)O[C@H]2CC(N)[C@@H](O[C@@H]3C(N)C[C@@H](N)C(O)[C@H]3O)OC2C1O (stereo partly shown) [Compound G8, 3″-amino-3″-deoxyapramycin] |  |  |  |  |  |  |  |  |  |  |  |  |  |  | 8 (≈ 14.9 µM) | 16 (≈ 29.7 µM) | 16 (≈ 29.7 µM) | 16 (≈ 29.7 µM) | 2 (≈ 3.71 µM) | 16 (≈ 29.7 µM) | MIC (S. aureus RN4220): 8 mg/L (≈ 14.9 µM); MIC (P. aeruginosa PAO1): 8 mg/L (≈ 14.9 µM); MIC (S. marcescens GN6944): 16 mg/L (≈ 29.7 µM); MIC (E. faecium ATCC19434): 32 mg/L (≈ 59.4 µM); MIC (S. aureus MF490): 32 mg/L (≈ 59.4 µM); MIC (P. aeruginosa MSC17707): 16 mg/L (≈ 29.7 µM); MIC [2]: 4 mg/L (≈ 7.43 µM); MIC [3]: 4 mg/L (≈ 7.43 µM)
